Test results reported in EP3641735B1, “PHARMACEUTICAL TABLET COMPOSITION COMPRISING BILASTINE FORM 3 AND A WATER-SOLUBLE FILLER” (Alfred E. Tiefenbacher (GmbH & Co. KG), priority 2017, dated 2019).

Tests used:
[1] = neat forms; 1 month at 25°C/60%RH and at 40°C/75%RH; cited from earlier work
[2] = Polymorphic analysis of API by XRD before and after micronisation (jet milling); type: physicochemical
From the text: For example, two from five batches of micronized API have shown the contamination of form 2 with form 3 and dihydrate form A.

CCOCCn1c(C2CCN(CCc3ccc(C(C)(C)C(=O)O)cc3)CC2)nc2ccccc21 [Eta, 2-[4-(2-(4-(1-(2-ethoxyethyl)-1H-benzimidazol-2-yl)piperidin-1-yl)ethyl)phenyl]-2-methylpropionic acid]
polymorphic stability on storage [1]: stable on storage

CCOCCn1c(C2CCN(CCc3ccc(C(C)(C)C(=O)O)cc3)CC2)nc2ccccc21 [form 3, 2-[4-(2-(4-(1-(2-ethoxyethyl)-1H-benzimidazol-2-yl)piperidin-1-yl)ethyl)phenyl]-2-methylpropionic acid]
polymorphic form of API after micronisation (XRD) ([2]; listed as Bilastine form 3): remains in the polymorphic form 3 without changes
polymorphic stability on storage [1]: converted partially into the form 1

CCOCCn1c(C2CCN(CCc3ccc(C(C)(C)C(=O)O)cc3)CC2)nc2ccccc21 [Alpha, 2-[4-(2-(4-(1-(2-ethoxyethyl)-1H-benzimidazol-2-yl)piperidin-1-yl)ethyl)phenyl]-2-methylpropionic acid]
polymorphic stability on storage [1]: stable on storage

CCOCCn1c(C2CCN(CCc3ccc(C(C)(C)C(=O)O)cc3)CC2)nc2ccccc21 [form 2, 2-[4-(2-(4-(1-(2-ethoxyethyl)-1H-benzimidazol-2-yl)piperidin-1-yl)ethyl)phenyl]-2-methylpropionic acid]
polymorphic form of API after micronisation (XRD) ([2]; listed as polymorphic form 2): presence of form 3 and dihydrate form A as polymorphic impurities
polymorphic stability on storage [1]: stable on storage

CCOCCn1c(C2CCN(CCc3ccc(C(C)(C)C(=O)O)cc3)CC2)nc2ccccc21 [form 1, 2-[4-(2-(4-(1-(2-ethoxyethyl)-1H-benzimidazol-2-yl)piperidin-1-yl)ethyl)phenyl]-2-methylpropionic acid]
polymorphic stability on storage [1]: stable on storage
